Laboratory results as given in patent publication US8410130B2, “Synthesis of 8H-3A-aza-cyclopenta [A ]indenes and 5,10-dihydropyrrolo[1,2-B]isoquinolines derivatives and their use as antitumor therapeutic agents” (Academia Sinica, priority 2007, dated 2013).
Where two headings read alike, the source gives them in different places.

How the values were obtained:
[1] = tested on: CCRF-CEM human lymphoblastic leukemia cells; assay: In vitro cytotoxicity, XTT assay, 72-hr incubation; assay type: cell-based
From the text: (§1) Human colon carcinoma HCT-116 cells, human prostate adenocarcinoma PC-3 and adenocarcinoma SK-OV-3 cells were obtained from American Type Culture Collection (ATCC, Rockville, Md.). Human mammary carcinoma (MX-1) tumor cells were obtained from MSKCC cell bank. The CCRF-CEM human lymphoblastic leukemia cells and their vinblastine resistant subline (CCRF-CEM/VBL, 680-fold resistance in vitro) were obtained from Dr. William Beck of the University of Illinois, Chicago, and CCRF-CEM/Taxol (330-fold resistance in vitro). Resistant cells CCRF-CEM/taxol were produced by exposing the parent cells to increasing sublethal concentration (IC50-IC90) of paclitaxel for six months.
(§2) In preparation for in vitro cytotoxicity assays, cells were cultured at an initial density 2-5×10^4 cells per milliliter. They were maintained in a 5% CO2-humidified atmosphere at 37° C. in RPMI medium 1640 (GIBCO/BRL) containing penicillin (100 units/mL), streptomycin (100 μg/mL, GIBCO/BRL), and 5% heat-inactivated FBS. For cells grown in suspension (such as CCRF-CEM and its sublines), cytotoxicity was measured, by using XTT microculture method in 96-well microtiter plates (Scudiero D A et al., Cancer Res. 1988, 48, 4827-4833). For solid tumor cells growing in a monolayer (such as MX-1 and HCT-116), cytotoxicity of the drug was determined, in duplicate, in 96-well microtiter plates by using the sulforhodamine B method (Skehan P et al., J. Natl. Cancer Inst 1990, 82, 1107-1112). For both methods, the absorbance of each well was measured with a microplate reader (Power Wave XS, Bio-Tek, Winooski, Vt.) after 72-hr incubation as described previously (Chou T-C et al., Proc. Natl. Acad. Sci. USA 2001, 98, 8113-8118). Dose-effect relationship data from 6 to 7 concentrations of each drug, in duplicate, were analyzed by using a computer program (Chou T-C et al., ComboSyn, Inc., Paramus, N J. 2005) based on the median-effect principle and plot (Chou T-C et al., Adv. Enzyme Regul. 1984, 22, 27-55; Chou T-C, Pharmacol. Rev. 2006, 58, 621-681).
(§3) The IC50 is defined by the concentration required to inhibit tumor cell growth by 50%. […] The growth inhibition of the compounds disclosed herein against human lymphoblastic leukemic cells (CCRF-CEM) and its drug-resistant sublines (resistant to vinblastine and taxol, CCRF-CEM/VBL and CCRF-CEM/taxol, respectively) is also shown in Table 5. […] Thus, the compounds disclosed herein are effective against multiple drug resistant tumors.

[2] = tested on: CCRF-CEM/VBL; assay: In vitro cytotoxicity, XTT assay, vinblastine resistant subline; assay type: cell-based, human; conditions: for IC50: XTT assay, 72-hr incubation; for fold of cross-resistant, CCRF-CEM/VBL vs IC50 of the parent cell line: numbers in brackets
From the text: as §1, §2, §3

[3] = tested on: CCRF-CEM/Taxol; assay: In vitro cytotoxicity, XTT assay, taxol resistant subline; assay type: cell-based, human; conditions: for IC50: XTT assay, 72-hr incubation; for fold of cross-resistant, CCRF-CEM/Taxol vs IC50 of the parent cell line: numbers in brackets
From the text: as §1, §2, §3

[4] = tested on: Human colon carcinoma HCT-116 cells; assay: In vitro cytotoxicity, sulforhodamine B (SRB) assay; assay type: cell-based
From the text: as §1, §2, §3

[5] = tested on: Human mammary carcinoma (MX-1) tumor cells; assay: as above; assay type: cell-based; conditions: 72-hr incubation
From the text: as §1, §2, §3

[6] = Homo sapiens, HCT-116, 72-hr incubation

SMILES	IC50 ([1]; Homo sapiens, CCRF-CEM)	IC50 ([2]; Homo sapiens, CCRF-CEM)	fold of cross-resistant, CCRF-CEM/VBL vs IC50 of the parent cell line [2]	IC50 ([3]; Homo sapiens, CCRF-CEM)	fold of cross-resistant, CCRF-CEM/Taxol vs IC50 of the parent cell line [3]	IC50 [4, 6]	IC50 ([5]; Homo sapiens)	IC50 [1]	IC50 [2]	IC50 [3]	IC50 ([4]; 72-hr incubation)	IC50 [5]
OCc1c(CO)c(-c2ccc(Cl)cc2)n2c1Cc1ccccc1-2 [DA-1003, (3-(4-Chlorophenyl)-2-hydroxymethyl-8H-3a-aza-cyclopenta[a]inden-1-yl)methanol]	4270 nM	2530 nM	[0.59x]	4220 nM	[1.00x]	5.59 µM	6.13 µM	–	–	–	–	–
COc1ccc(-c2c(CO)c(CO)c3n2-c2ccccc2C3)cc1 [DA-1005, (2-Hydroxymethyl-3-(4-methoxyphenyl)-8H-3a-aza-cyclopenta[a]inden-1-yl)methanol]	1160 nM	1670 nM	[1.4x]	1660 nM	[1.4x]	5.83 µM	10.8 µM	–	–	–	–	–
OCc1c(CO)c(-c2ccccc2)n2c1Cc1ccccc1-2 [DA-1011, (2-hydroxymethyl-3-phenyl-8H-3a-azacyclopenta[a]inden-1-yl)-methanol]	252 nM	213 nM	[0.85x]	224 nM	[0.89x]	1.85 µM	1.35 µM	–	–	–	–	–
CNC(=O)OCc1c(COC(=O)NC)c(-c2ccccc2)n2c1Cc1ccccc1-2 [DA-1022, Methylcarbamic acid 2-methylcarbamoyloxymethyl-3-phenyl-8H-3a-aza-cyclopenta[a] inden-1-ylmethylester]	357 nM	1620 nM	[4.5x]	556 nM	[1.6x]	0.761 µM	5.92 µM	–	–	–	–	–
OCc1c(CO)c(-c2ccc(F)cc2)n2c1Cc1ccccc1-2 [DA-1024, (3-(4-Flourophenyl)-2-hydroxymethyl-8H-3a-aza-cyclopenta[a]inden-1-yl)methanol]	–	–	[0.96x]	–	[2.6x]	–	–	4250 nM	4070 nM	11000 nM	8.07 µM	22.3 µM
OCc1c(CO)c(-c2ccc(F)c(F)c2)n2c1Cc1ccccc1-2 [DA-1025, (3-(3,4-Diflourophenyl)-2-hydroxymethyl-8H-3a-aza-cyclopenta[a]inden-1-yl)methanol]	–	–	[1.98x]	–	[1.6x]	–	–	4910 nM	7270 nM	7780 nM	10.8 µM	7 µM
CNC(=O)OCc1c(COC(=O)NC)c(-c2ccc(F)cc2)n2c1Cc1ccccc1-2 [DA-1026, Methylcarbamic acid 3-(4-flourophenyl)-2-methylcarbamoyloxymethyl-8H-3a-aza-cyclopenta[a]inden-1-ylmethyl ester]	–	–	[2.2x]	–	[2.1x]	–	–	137 nM	307 nM	284 nM	0.397 µM	0.744 µM
CNC(=O)OCc1c(COC(=O)NC)c(-c2ccc(F)c(F)c2)n2c1Cc1ccccc1-2 [DA-1027, Methylcarbamic acid 3-(3,4-diflourophenyl)-2-methylcarbamoyloxymethyl-8H-3a-aza-cyclopenta[a]inden-1-ylmethyl ester]	–	–	[0.99x]	–	[1.0x]	–	–	639 nM	632 nM	644 nM	0.878 µM	7.84 µM
